Values after ≈ are worked out from the molar mass of the structure shown. Values joined by “and” are separate entries in the source; they are usually repeats but may differ in a detail not shown here. Identical values can stand only once.
Columns and labels:
[1] = molecular target: T1, H. pylori Shikimate Dehydrogenase (HpSDH) (Helicobacter pylori, UniProt P56119); assay: Inhibition activity assay toward HpSDH; type: biochemical; conditions: for IC50: IC50 toward HpSDH, wild type (26695) HpSDH recombinant protein; for inhibition activity toward HpSDH (in words): preliminary screening concentration 100 μM
T1 construct: made in house; host or cells: E. coli BL21
T1 sequence (P56119 whole entry): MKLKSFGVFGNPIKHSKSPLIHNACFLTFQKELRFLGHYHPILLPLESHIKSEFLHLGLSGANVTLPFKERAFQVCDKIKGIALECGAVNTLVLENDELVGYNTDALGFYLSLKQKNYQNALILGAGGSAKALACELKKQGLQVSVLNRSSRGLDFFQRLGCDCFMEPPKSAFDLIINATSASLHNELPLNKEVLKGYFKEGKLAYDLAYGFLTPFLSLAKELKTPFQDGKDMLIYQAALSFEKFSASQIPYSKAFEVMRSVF
From the text: The recombinant HpSDH (aroE) was cloned in pET-28a plasmid and transformed into E. coli strain BL21 as expression host.
Relative HpSDH activity calculations were based on the initial velocity that absorbance at the 5 to 10% of the time when reaction absorbance reached the maximum level. The variable slope of this time interval represented the reaction rate of HpSDH at various concentration of compound and normalized with the negative control HpSDH (without inhibitor) which represented 100% activity.
To evaluate structure activity relationship (SAR), all the synthesized compounds in SDH inhibition activity on wild type HpSDH recombinant protein was evaluated. All the datas of effective compounds were expressed as IC50 value after treated with different compounds. In priminary screening, using 100 μM as priminary screening concentration to evaluate all synthesized compounds.
(§1) The enzymatic activity of HpSDH was measured in the direction of reduction of NADP^+ to NADPH in the present of shikimic acid at 340 nm absorbance and conducted in 96-well plate ELISA reader. The final concentration of shikimic acid and NADP^+ were 2 mM, and the final protein concentration was 100 nM. Shikimic acid was added by injector needle equipped in ELISA reader to ensure the measurements were made at the same time spacing. NADPH would accumulate along with reaction, and the absorbance at 340 nm would be measured in every cycle of HpSDH reaction.

H. pylori [2] = assay: Minimum bactericidal concentration assay (MBC assay) against H. pylori; type: cell-based, Helicobacter pylori; conditions: for MBC: Helicobacter pylori; for anti-bacterial activity toward H. pylori (in words): wild type (26695) and clinical isolated strains
Description: To evaluate the anti-H. pylori activity, the minimum bactericidal concentration (MBC) value of compounds was determined. The MBC value of standard antibiotics, clarithromycine (CLR) and metronidazole (MTZ) were served as the positive control.
Wild type (26695, as reference strain) was cultured on brucella broth agar plate containing 1% IsovialeX (Becton, Dickinson and Company, USA) and 10% sheep blood in microaerophilic environment (5% O2, 10% CO2, and 85% N2), 37° C. Clinical strains (v574, v633, v1086, v1254, v1267, v1354 and v2311) were cultured on brucella broth agar plate containing 1% IsovialeX and 20%-30% sheep blood in microaerophilic environment (5% O2, 10% CO2, and 85% N2), 37° C.
Wild type and selected clinical H. pylori strains was cultured for 24 to 36 hours and measured by Cell density meter, O.D. 680 at 0.87-0.9. H. pylori and selected compounds with serial concentration were mixed in Brucella-broth (BD) with 10% of FBS in 24-well plate, and total volume of each well was 300 μl, cultured under 37° C. with 180 rpm shaking. After incubated for 24 hours, 3 μl of each well was seeding on blood agar plate for another 48 hours culture. […] The final concentration of DMSO in the assay was less than 5% to avoid any effect in the growth of H. pylori at this experiment.

[3] = molecular target: T1, H. pylori Shikimate Dehydrogenase (HpSDH); assay: Enzymatic kinetics of effective compounds toward HpSDH; type: biochemical; conditions: for inhibition type toward NADP+ / inhibition type toward shikimic acid: HpSDH
Description: as §1
To study the inhibition mode of these compounds and inhibition type to shikimic acid and NADP^+, different concentrations of inhibitors and graded concentrations of substrates by activity assay was examined.

H. pylori [4] = assay: Synergistic effect of compound 25a in MBC test against H. pylori; type: cell-based, Helicobacter pylori; conditions: for MBC: Helicobacter pylori, 24 h, read-out: MBC, single treatment

Structure (SMILES)	IC50 [1]	inhibition activity toward HpSDH (in words) [1]	MBC (H. pylori [2]; W.T 26695)	MBC (H. pylori [2]; clinical isolated strain v574)	MBC (H. pylori [2]; clinical isolated strain v633)	MBC (H. pylori [2]; clinical isolated strain v1086)	MBC (H. pylori [2]; clinical isolated strain v1254)	MBC (H. pylori [2]; clinical isolated strain v1267)	MBC (H. pylori [2]; clinical isolated strain v1354)	MBC (H. pylori [2]; clinical isolated strain v2311)	MBC value against H. pylori (H. pylori [2]; W.T 26695)	MBC value against H. pylori (H. pylori [2]; clinical isolated strain v633)	Ki [3]	inhibition type toward NADP+ [3]	inhibition type toward shikimic acid [3]	also measured
O=C1NC(=O)C(=C/C=C/c2ccccc2)C(=O)N1 [7a]	32.7 µM	more effective inhibitors	–	–	–	–	–	–	–	–	–	–	–	–	–	–
O=C1NC(=O)C(=C/C=C/c2ccc([N+](=O)[O-])cc2)C(=O)N1 [7b]	–	–	8 µg/mL (≈ 27.9 µM)	8 µg/mL (≈ 27.9 µM)	4 µg/mL (≈ 13.9 µM)	8 µg/mL (≈ 27.9 µM)	8 µg/mL (≈ 27.9 µM)	8 µg/mL (≈ 27.9 µM)	8 µg/mL (≈ 27.9 µM)	16 µg/mL (≈ 55.7 µM)	8.0 mg/L (≈ 27.9 µM)	4.0 mg/L (≈ 13.9 µM)	–	–	–	–
COc1ccccc1/C=C/C=C1C(=O)NC(=O)NC1=O [7c]	33.7 µM	more effective inhibitors	–	–	–	–	–	–	–	–	–	–	–	–	–	MBC (H. pylori [2]; 24 h, W.T 26695): 16 µg/mL (≈ 58.8 µM); MBC (H. pylori [2]; 24 h, clinical isolated strain v574): 16 µg/mL (≈ 58.8 µM); MBC (H. pylori [2]; 24 h, clinical isolated strain v633): 16 µg/mL (≈ 58.8 µM); MBC (H. pylori [2]; 24 h, clinical isolated strain v1086): 8 µg/mL (≈ 29.4 µM); MBC (H. pylori [2]; 24 h, clinical isolated strain v1254): 16 µg/mL (≈ 58.8 µM); MBC (H. pylori [2]; 24 h, clinical isolated strain v1267): 16 µg/mL (≈ 58.8 µM); MBC (H. pylori [2]; 24 h, clinical isolated strain v1354): 16 µg/mL (≈ 58.8 µM); MBC (H. pylori [2]; 24 h, clinical isolated strain v2311): 16 µg/mL (≈ 58.8 µM)
COc1ccc(/C=C/C=C2C(=O)NC(=O)NC2=O)cc1 [7d]	35.1 µM	more effective inhibitors	8 µg/mL (≈ 29.4 µM)	8 µg/mL (≈ 29.4 µM)	4 µg/mL (≈ 14.7 µM)	8 µg/mL (≈ 29.4 µM)	8 µg/mL (≈ 29.4 µM)	8 µg/mL (≈ 29.4 µM)	8 µg/mL (≈ 29.4 µM)	16 µg/mL (≈ 58.8 µM)	8.0 mg/L (≈ 29.4 µM)	4.0 mg/L (≈ 14.7 µM)	–	–	–	anti-bacterial activity toward H. pylori (in words) (H. pylori [2]): three most potent inhibitors
CSc1ccc(/C=C/C=C2C(=O)NC(=O)NC2=O)cc1 [7e]	22 µM and 11 to 22 µM	more effective inhibitors	8 µg/mL (≈ 27.7 µM)	8 µg/mL (≈ 27.7 µM)	8 µg/mL (≈ 27.7 µM)	8 µg/mL (≈ 27.7 µM)	8 µg/mL (≈ 27.7 µM)	8 µg/mL (≈ 27.7 µM)	8 µg/mL (≈ 27.7 µM)	8 µg/mL (≈ 27.7 µM)	8.0 mg/L (≈ 27.7 µM)	–	2.67 µM	competitive inhibition	non-competitive or uncompetitive	anti-bacterial activity toward H. pylori (in words) (H. pylori [2]): three most potent inhibitors
COc1cccc(OC)c1/C=C/C=C1C(=O)NC(=O)NC1=O [7h]	–	more effective inhibitors	8 µg/mL (≈ 26.5 µM)	8 µg/mL (≈ 26.5 µM)	4 µg/mL (≈ 13.2 µM)	16 µg/mL (≈ 52.9 µM)	32 µg/mL (≈ 106 µM)	8 µg/mL (≈ 26.5 µM)	4 µg/mL (≈ 13.2 µM)	16 µg/mL (≈ 52.9 µM)	8.0 mg/L (≈ 26.5 µM)	4.0 mg/L (≈ 13.2 µM)	–	–	–	MBC value against H. pylori (H. pylori [2]; clinical isolated strain v1354): 4.0 mg/L (≈ 13.2 µM)
COc1cc(/C=C/C=C2C(=O)NC(=O)NC2=O)cc(OC)c1 [7i]	20.3 µM and 11 to 22 µM	more effective inhibitors	8 µg/mL (≈ 26.5 µM)	8 µg/mL (≈ 26.5 µM)	4 µg/mL (≈ 13.2 µM)	8 µg/mL (≈ 26.5 µM)	32 µg/mL (≈ 106 µM)	8 µg/mL (≈ 26.5 µM)	4 µg/mL (≈ 13.2 µM)	16 µg/mL (≈ 52.9 µM)	8.0 mg/L (≈ 26.5 µM)	4.0 mg/L (≈ 13.2 µM)	3.81 µM	competitive inhibition	non-competitive or uncompetitive	MBC value against H. pylori (H. pylori [2]; clinical isolated strain v1354): 4.0 mg/L (≈ 13.2 µM)
C=CCN1C(=O)C(=C/C=C/c2ccccc2)C(=O)N(CC=C)C1=O [25a, (E)-1,3-diallyl-5-(3-phenylallylidene)pyrimidine-2,4,6(1H,3H,5H)-trione]	11.4 µM and 11 to 22 µM	more effective inhibitors	8 µg/mL (≈ 24.8 µM)	8 µg/mL (≈ 24.8 µM)	16 µg/mL (≈ 49.6 µM)	8 µg/mL (≈ 24.8 µM)	8 µg/mL (≈ 24.8 µM)	8 µg/mL (≈ 24.8 µM)	8 µg/mL (≈ 24.8 µM)	8 µg/mL (≈ 24.8 µM)	8.0 mg/L (≈ 24.8 µM)	–	2.01 µM	competitive inhibition	non-competitive or uncompetitive	anti-bacterial activity toward H. pylori (in words) (H. pylori [2]): three most potent inhibitors; MBC (H. pylori [4]): 6 µg/mL; MBC, single treatment (H. pylori [4]; v574 MTR-resistant strain): 6.0 mg/L; MBC, single treatment (H. pylori [4]; v1086 CLR-resistant strain): 6.0 mg/L
Cc1cc(C)cc(N2C(=O)NC(=O)/C(=C\C=C\c3ccccc3)C2=O)c1 [CB6010554]	–	–	10 µg/mL (≈ 28.9 µM)	–	–	–	–	–	–	–	10.0 mg/L (≈ 28.9 µM)	–	–	–	–	–
C=CCN1C(=O)NC(=O)/C(=C/C=C/c2ccccc2)C1=O [CB6942859]	–	–	5 µg/mL (≈ 17.7 µM)	–	–	–	–	–	–	–	5.0 mg/L (≈ 17.7 µM)	–	–	–	–	–
CC[C@H]1OC(=O)[C@H](C)[C@@H](O[C@H]2C[C@@](C)(OC)[C@@H](O)[C@H](C)O2)[C@H](C)[C@@H](O[C@@H]2O[C@H](C)C[C@H](N(C)C)[C@H]2O)[C@](C)(OC)C[C@@H](C)C(=O)[C@H](C)[C@@H](O)[C@]1(C)O [CLR, clarithromycin]	–	–	–	–	–	–	–	–	–	–	–	–	–	–	–	growth of resistant strain v1086 (in words) (H. pylori [4]; CLR 4 mg/L alone or with compound 25a 2 mg/L): cannot completely inhibit the growth; MBC (H. pylori [4]; 26695 wild type): < 1 µg/mL; MBC (H. pylori [4]; v574 MTR-resistant strain): < 1 µg/mL; MBC (H. pylori [4]; v1086 CLR-resistant strain): 8 µg/mL
Cc1ncc([N+](=O)[O-])n1CCO [MTR, metronidazole]	–	–	–	–	–	–	–	–	–	–	–	–	–	–	–	MBC (H. pylori [4]; 26695 wild type): < 1 µg/mL; MBC (H. pylori [4]; v574 MTR-resistant strain): 32 µg/mL; MBC (H. pylori [4]; v1086 CLR-resistant strain): < 1 µg/mL; growth of v574 strain (in words) (H. pylori [4]; MTR 16 mg/L alone or with compound 25a 2 mg/L): cannot suppressed the growth; dosage needed to inhibit strain v574 relative to compound 25a (H. pylori [4]; v574 metronidazole resistant strain): 5 times
O=C1NC(=O)C(=C/C=C/c2ccc(NC(=O)c3ccccc3)cc2)C(=O)N1 [compound 17, (E)-N-(4-(3-(2,4,6-trioxotetrahydropyrimidin-5(2H)-ylidene)prop-1-en-1-yl)phenyl)benzamide]	16.1 µM and 11 to 22 µM	more effective inhibitors	16 µg/mL (≈ 44.3 µM)	16 µg/mL (≈ 44.3 µM)	16 µg/mL (≈ 44.3 µM)	16 µg/mL (≈ 44.3 µM)	16 µg/mL (≈ 44.3 µM)	16 µg/mL (≈ 44.3 µM)	8 µg/mL (≈ 22.1 µM)	16 µg/mL (≈ 44.3 µM)	–	–	6.93 µM	competitive inhibition	non-competitive or uncompetitive	–
